Data set [1] concerns the target T1, rat brain MAO-B (Rattus norvegicus, UniProt P19643).
T1 sequence (P19643 1-520): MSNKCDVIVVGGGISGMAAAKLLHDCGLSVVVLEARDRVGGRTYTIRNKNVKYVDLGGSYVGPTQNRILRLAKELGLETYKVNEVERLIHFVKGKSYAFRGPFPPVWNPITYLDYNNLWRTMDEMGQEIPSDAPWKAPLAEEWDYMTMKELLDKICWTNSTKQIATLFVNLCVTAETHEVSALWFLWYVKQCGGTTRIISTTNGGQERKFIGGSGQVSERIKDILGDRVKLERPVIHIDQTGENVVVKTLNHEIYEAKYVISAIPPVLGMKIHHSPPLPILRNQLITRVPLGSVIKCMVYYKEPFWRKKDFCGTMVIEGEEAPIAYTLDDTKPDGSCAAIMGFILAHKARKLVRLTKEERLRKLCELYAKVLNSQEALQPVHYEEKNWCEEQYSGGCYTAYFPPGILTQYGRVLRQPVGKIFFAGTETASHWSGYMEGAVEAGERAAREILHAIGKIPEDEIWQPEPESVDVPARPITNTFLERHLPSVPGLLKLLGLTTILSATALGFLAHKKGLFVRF
Description: Kinetics of monoamine oxidase inhibition. Particulars: for Mechanism of inhibition: MAO-B, substrate benzylamine, Lineweaver-Burk. The format is biochemical.

The target in data set [2] is T1, rat brain MAO-B. Description: Inhibition of MAO-B activity in rat brain crude mitochondrial fraction. Type of data set: biochemical.
For data set [3] the following is noted: cited from earlier work.

What is called IC50 is the midpoint of a concentration-inhibition curve. For `COc1cc(C=CC(=O)CC(=O)C=Cc2ccc(O)c(OC)c2)ccc1O` [Curcumin, 1,7-bis-(4-hydroxy-3-methoxyphenyl)-hepta-1,6-diene-3,5-dione], the Mechanism of inhibition result in data set [1] is on record as “noncompetitive”. Moreover, in data set [2], the IC50 came to 500 nM. Further, the pKa value in data set [3] is 8.54.

On to `O=c1oc2c(O)c(O)cc3c(=O)oc4c(O)c(O)cc1c4c23` [Ellagic acid], for which, in data set [1], the Mechanism of inhibition result is given as “Competitive”. Moreover, in data set [1] (ellagic acid, 200–600 μg/ml as printed, benzylamine 5-15 mM), the “Vmax (remained constant)” value is 8.40 nM/min. The same compound yielded a 50% inhibitory concentration (IC50) in data set [2] of 412 nM.
